Values of other authors, collected in PMC8847371 (Nature Communications, 2022).

Experiments:
COVID-19 [1] = test system: COVID-19; design: method as in MOVe-OUT trial (NCT04575597); settings: phase 3, high-risk patients with mild to moderate COVID-19; ref MOVe-OUT trial (NCT04575597); cited from earlier work
SARS-CoV-2 VoC = settings: cited from earlier work
SARS-CoV-2 = settings: cited from earlier work
COVID-19 [2] = test system: COVID-19; design: method as in recent press release; settings: early administration, high risk patients with mild to moderate symptoms; ref recent press release; cited from earlier work

SMILES | risk of hospitalization or death (COVID-19 [1]) | in vitro potency against the four VOC (SARS-CoV-2 VoC) | efficacy in the SARS-CoV-2 hamster infection model (SARS-CoV-2) | reduction of likelihood of hospitalization (COVID-19 [2])
CC(C)C(=O)OC[C@H]1O[C@@H](n2ccc(NO)nc2=O)[C@H](O)[C@@H]1O [Molnupiravir] | significant reduction | equipotent | effective | 
CCC(CC)COC(=O)[C@H](C)N[P@](=O)(OC[C@H]1O[C@@](C#N)(c2ccc3c(N)ncnn23)[C@H](O)[C@@H]1O)Oc1ccccc1 [Veklury] |  |  |  | 87%
